Assay results taken from patent publication EP4582413A1, “ARYLTETRAHYDROPYRIDINE COMPOUND AND PEST CONTROL AGENT” (priority 2022, dated 2024).

What was measured:
Assay type in all cases: in vivo
[1] = system: green peach aphids (Myzus persicae); experiment: Insecticidal test for green peach aphids; conditions: 500 ppm chemical solution sprinkled (2.5 mg/cm^2), wingless imagoes on leaf disc, six days, 25°C; for mortality at 500 µg/mL: Myzus persicae, foliar, 144 h, read-out: death rate; for death rate: 8640 min
Experimental: Wet absorbent cotton was laid on each glass dish having an inner diameter of 3 cm, a Chinese olive leaf cut into a circle having a diameter of 3 cm was placed thereon, and four wingless green peach aphids (Myzus persicae) imagoes were released. After a day, a 10% by mass emulsion of the presently invented compound prepared according to the above formulation example for an emulsion was diluted with water containing a spreader to prepare a chemical solution having a concentration of 500 ppm. The chemical solution prepared was sprinkled (2.5 mg/cm^2) with a rotary tower sprinkler, and the dishes were capped and accommodated in a thermostatic room at 25°C. […] The test was carried out in duplicate.

[2] = system: cat fleas (Ctenocephalides felis); experiment: whole plant or invertebrate; conditions: 72 h, read-out: death rate
Outline: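 Glass containers (25 cm² inner surface) were coated with 250 µl of a 1000 ppm acetone solution, and the acetone was evaporated to leave a dry film. Five mixed-sex adult fleas were confined per container at 25°C. Mortality was scored after 3 days.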

[3] = system: diamondback moths (Plutella xylostella); experiment: Insecticidal test for diamondback moths; conditions: Plutella xylostella, 144 h; 500 ppm chemical solution, leaves soaked, third-instar larvae, six days, 25°C; read-out: death rate
Outline: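 Leaves dipped about 10 s in a 500 ppm aqueous dilution of an emulsion formulation with spreader, then air-dried. Five third-instar larvae released per dish and held at 25 °C. Tested in duplicate.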

[4] = system: western flower thrips (Frankliniella occidentalis); experiment: Insecticidal activity against western flower thrips; conditions: Frankliniella occidentalis, 48 h; 500 ppm chemical solution sprinkled (2.5 mg/cm^2), larvae on common bean leaf, after 2 days; read-out: death rate
Outline: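 Bean leaf squares on wet filter paper inoculated with 20 larvae. Compound emulsion diluted with spreader-containing water to 500 ppm and sprayed at 2.5 mg/cm^2 by rotary tower. Run in duplicate.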

[5] = system: brown rice planthoppers (Nilaparvata lugens); experiment: Insecticidal test for brown rice planthoppers; conditions: Nilaparvata lugens, 144 h; 500 ppm chemical solution, rice leaf sheaths soaked, third-instar larvae, six days, 25°C; read-out: death rate
Outline: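 Rice leaf sheaths dipped ~10 s in 500 ppm compound solution (emulsion diluted in water with spreader), air-dried, then infested with five third-instar larvae per tube at 25 °C. Mortality scored after 6 days, death rate calculated, in duplicate.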

Compound | mortality at 500 µg/mL [1] | mortality at 10 µg/cm2 [2] | mortality at 500 µg/mL [3] | mortality at 500 µg/mL [4] | mortality at 500 µg/mL [5] | death rate [1]
O=C(Nc1ccc(F)cc1)C1=C(O)CC(c2ccc(C(F)(F)F)c(-c3ccccc3)c2)NC1=O (stereo not shown) [1-004] | ≥ 90% | ≥ 50% | ≥ 90% | – | – | –
COc1ccccc1-c1cc(C2CC(O)=C(C(=O)Nc3ccc(F)cc3)C(=O)N2)ccc1C(F)(F)F (stereo not shown) [1-016] | ≥ 90% | ≥ 50% | ≥ 90% | ≥ 90% | – | –
O=C(Nc1cnc(Cl)cn1)C1=C(O)CC(c2nc(-c3ccnc(Cl)c3)no2)NC1=O (stereo not shown) [3-268] | ≥ 90% | ≥ 50% | ≥ 90% | ≥ 90% | ≥ 90% | –
COc1cccc(-c2cc(C3CC(O)=C(C(=O)Nc4ccc(F)cc4)C(=O)N3)ccc2C(F)(F)F)c1 (stereo not shown) [1-017] | ≥ 90% | ≥ 50% | ≥ 90% | ≥ 90% | – | –
O=C(Nc1ccc(F)cn1)C1=C(O)CC(c2nc(-c3ccncc3Cl)no2)NC1=O (stereo not shown) [3-236] | ≥ 90% | ≥ 50% | ≥ 90% | ≥ 90% | ≥ 90% | –
O=C(Nc1ccc(F)cc1)C1=C(O)CC(c2nc(-c3ccc(F)cc3F)no2)NC1=O (stereo not shown) [3-131] | ≥ 90% | ≥ 50% | ≥ 90% | ≥ 90% | ≥ 90% | –
O=C(Nc1ccccn1)C1=C(O)CC(c2nc(-c3ccc(F)cc3F)no2)NC1=O (stereo not shown) [3-132] | ≥ 90% | ≥ 50% | ≥ 90% | ≥ 90% | ≥ 90% | –
O=C(Nc1cc(F)ccn1)C1=C(O)CC(c2nc(-c3cccc(F)c3F)no2)NC1=O (stereo not shown) [3-049] | ≥ 90% | ≥ 50% | ≥ 90% | ≥ 90% | ≥ 90% | –
O=C(Nc1cnccn1)C1=C(O)CC(c2nc(-c3ccc(F)nc3)no2)NC1=O (stereo not shown) [3-257] | ≥ 90% | ≥ 50% | ≥ 90% | ≥ 90% | ≥ 90% | –
O=C(Nc1ccc(F)cc1)C1=C(O)CC(c2cnc(Cl)c(-c3cncc(F)c3)c2)NC1=O (stereo not shown) [2-058] | ≥ 90% | ≥ 50% | ≥ 90% | ≥ 90% | ≥ 90% | –
N#Cc1ccc(NC(=O)C2=C(O)CC(c3cnc(Cl)c(-c4cccnc4)c3)NC2=O)cn1 (stereo not shown) [2-097] | ≥ 90% | ≥ 50% | ≥ 90% | – | ≥ 90% | –
N#Cc1ccc(-c2cc(C3CC(O)=C(C(=O)Nc4ccc(F)cc4)C(=O)N3)ccc2C(F)(F)F)cc1 (stereo not shown) [1-023] | ≥ 90% | ≥ 50% | ≥ 90% | ≥ 90% | – | –
O=C(Nc1cc(F)ccn1)C1=C(O)CC(c2nc(-c3ccccc3F)no2)NC1=O (stereo not shown) [3-058] | ≥ 90% | ≥ 50% | ≥ 90% | ≥ 90% | ≥ 90% | –
O=C(Nc1ccc(F)cc1)C1=C(O)CC(c2nc(-c3ccsc3)no2)NC1=O (stereo not shown) [3-109] | ≥ 90% | ≥ 50% | ≥ 90% | ≥ 90% | – | –
O=C(Nc1ccc(Cl)nc1)C1=C(O)CC(c2cnc(Cl)c(-c3ccc(F)nc3)c2)NC1=O (stereo not shown) [2-010] | ≥ 90% | ≥ 50% | ≥ 90% | ≥ 90% | ≥ 90% | –
O=C(Nc1nccs1)C1=C(O)CC(c2cnc(C(F)(F)F)c(-c3ccc(F)nc3)c2)NC1=O (stereo not shown) [2-184] | ≥ 90% | ≥ 50% | ≥ 90% | ≥ 90% | ≥ 90% | –
O=C(Nc1cc(Br)ccn1)C1=C(O)CC(c2nc(-c3ccncc3Cl)no2)NC1=O (stereo not shown) [3-232] | ≥ 90% | ≥ 50% | ≥ 90% | ≥ 90% | ≥ 90% | –
CSc1ccc(-c2cc(C3CC(O)=C(C(=O)Nc4ccc(F)cc4)C(=O)N3)ccc2C(F)(F)F)cc1 (stereo not shown) [1-009] | ≥ 90% | ≥ 50% | ≥ 90% | ≥ 90% | – | –
Cc1ccc(NC(=O)C2=C(O)CC(c3nc(-c4ncccn4)no3)NC2=O)nc1 (stereo not shown) [3-167] | – | – | – | – | – | ≥ 90%
CN(C)c1ccc(-c2noc(C3CC(O)=C(C(=O)Nc4ccc(F)cn4)C(=O)N3)n2)cc1 (stereo not shown) [3-118] | – | – | – | – | – | ≥ 90%

Compound | mortality at 500 µg/mL [1] | mortality at 10 µg/cm2 [2] | mortality at 500 µg/mL [3] | mortality at 500 µg/mL [4] | mortality at 500 µg/mL [5] | death rate [1]
O=C(Nc1ccc(Cl)nn1)C1=C(O)CC(c2cnc(Cl)c(-c3ccc(Cl)nc3)c2)NC1=O (stereo not shown) [2-046] | – | – | – | – | – | ≥ 90%
COC(=O)c1ccc(NC(=O)C2=C(O)CC(c3cnc(Cl)c(-c4ccc(F)cc4)c3)NC2=O)cc1 (stereo not shown) [2-292] | ≥ 90% | – | – | – | – | –
CS(=O)(=O)c1ccc(-c2cc(C3CC(O)=C(C(=O)Nc4ccc(F)cc4)C(=O)N3)ccc2C(F)(F)F)cc1 (stereo not shown) [1-019] | ≥ 90% | ≥ 50% | ≥ 90% | ≥ 90% | – | –
CC(=O)c1ccc(-c2cc(C3CC(O)=C(C(=O)Nc4ccc(F)cc4)C(=O)N3)ccc2C(F)(F)F)cc1 (stereo not shown) [1-012] | ≥ 90% | ≥ 50% | – | – | – | –
CCCOc1ccc(-c2cncc(C3CC(O)=C(C(=O)Nc4ccc(F)cc4)C(=O)N3)c2)cn1 (stereo not shown) [2-007] | – | – | – | – | – | ≥ 90%
CC(=O)c1cccc(-c2cc(C3CC(O)=C(C(=O)Nc4ccc(F)cc4)C(=O)N3)ccc2C(F)(F)F)c1 (stereo not shown) [1-011] | ≥ 90% | ≥ 50% | ≥ 90% | ≥ 90% | – | –
C#Cc1ccc(NC(=O)C2=C(O)CC(c3cnc(Cl)c(-c4cccc(C)c4)c3)NC2=O)cc1 (stereo not shown) [2-280] | ≥ 90% | ≥ 50% | ≥ 90% | ≥ 90% | – | –
CSc1cccc(NC(=O)C2=C(O)CC(c3cnc(Cl)c(-c4cccc(C)c4)c3)NC2=O)c1 (stereo not shown) [2-284] | – | – | – | – | – | ≥ 90%
Cc1ccc(NC(=O)C2=C(O)CC(c3nc(-c4ccnc(F)c4)no3)NC2=O)c(C)c1 (stereo not shown) [3-266] | – | – | – | – | – | ≥ 90%
Cc1cccc(-c2cc(C3CC(O)=C(C(=O)Nc4cccnc4Cl)C(=O)N3)cnc2Cl)c1 (stereo not shown) [2-274] | ≥ 90% | ≥ 50% | ≥ 90% | – | – | –
Cc1cccc(-c2cc(C3CC(O)=C(C(=O)Nc4cccc(S(C)(=O)=O)c4)C(=O)N3)cnc2Cl)c1 (stereo not shown) [2-285] | – | – | – | – | – | ≥ 90%
O=C(Nc1ccc(F)cc1)C1=C(O)CC(c2nc(-c3cccc(F)c3F)no2)NC1=O (stereo not shown) [3-033] | ≥ 90% | ≥ 50% | ≥ 90% | – | ≥ 90% | –
O=C(Nc1ccc(F)cc1)C1=C(O)CC(c2ccc(C(F)(F)F)c(-c3ccoc3)c2)NC1=O (stereo not shown) [1-015] | ≥ 90% | ≥ 50% | ≥ 90% | ≥ 90% | – | –
CSc1ccccc1-c1cc(C2CC(O)=C(C(=O)Nc3ccc(F)cc3)C(=O)N2)ccc1C(F)(F)F (stereo not shown) [1-008] | ≥ 90% | ≥ 50% | ≥ 90% | ≥ 90% | – | –
O=C(Nc1cnc(Cl)cn1)C1=C(O)CC(c2cnc(Cl)c(-c3cccnc3)c2)NC1=O (stereo not shown) [2-098] | ≥ 90% | ≥ 50% | ≥ 90% | – | ≥ 90% | –
O=C(Nc1ccc(F)cc1)C1=C(O)CC(c2cncc(-c3cccc(C(F)(F)F)c3)c2)NC1=O (stereo not shown) [2-003] | ≥ 90% | – | – | – | – | –
O=C(Nc1ccc(F)cc1)C1=C(O)CC(c2ccc(C(F)(F)F)c(-c3ccccc3F)c2)NC1=O (stereo not shown) [1-005] | ≥ 90% | ≥ 50% | ≥ 90% | ≥ 90% | – | –
CN(C)c1ccc(-c2noc(C3CC(O)=C(C(=O)Nc4ccc(F)cc4)C(=O)N3)n2)cc1 (stereo not shown) [3-117] | ≥ 90% | – | – | – | – | –
Cc1cccc(-c2noc(C3CC(O)=C(C(=O)Nc4cc(F)ccn4)C(=O)N3)n2)c1 (stereo not shown) [3-053] | ≥ 90% | ≥ 50% | ≥ 90% | – | ≥ 90% | –
O=C(Nc1cccc(Cl)c1F)C1=C(O)CC(c2nc(-c3ccnc(F)c3)no2)NC1=O (stereo not shown) [3-248] | ≥ 90% | ≥ 50% | ≥ 90% | – | – | –
